These results are taken from patent publication US6251943A, “Method of treating or preventing septic shock by administering a MEK inhibitor” (Warner-Lambert Company, priority 1999, dated 2001).

The subject of one experiment is MAP kinase. Description: "In Vivo" activity (whole cell MAP kinase assay). The settings on record: Table 2. It counts as cell-based. On the procedure: To determine if compounds were able to block activation of MAP kinase in whole cells, the following protocol was used: Cells were plated in multi-well plates and grown to confluence. Cells were then serum-deprived overnight. Cells were exposed to the desired concentrations of compound or vehicle (DMSO) for 30 minutes, followed by addition of a growth factor, for example, PDGF (100 ng/mL). After a 5-minute treatment with the growth factor, cells were washed with PBS, then lysed in a buffer consisting of 70 mM NaCl, 10 mM HEPES (pH 7.4), 50 mM glycerol phosphate, and 1% Triton X-100. Lysates were clarified by centrifugation at 13,000×g for 10 minutes. Five micrograms of the resulting supernatants were incubated with […] microtubule associated protein-2 (Map2) for 15 minutes at 30° C. in a final volume of 25 μL containing 50 mM Tris (pH 7.4), 10 mM MgCl2, 2 mM EGTA and 30 μM [γ-^32 P]ATP. Reactions were terminated by addition of Laemmli sample buffer. Phosphorylated Map2 was resolved on 7.5% acrylamide gels and incorporated radioactivity determined by autoradiography and subsequent excision of the bands followed by scintillation counting.
The in vitro and in vivo biological activity of several representative compounds of Formula I and II in the foregoing assays is presented in Tables 1 and 2.

The target of a further experiment is MEK (Homo sapiens, UniProt Q02750). As to the kind of experiment: In vitro MEK inhibition (cascade assay for inhibitors of the MAP kinase pathway / in vitro MEK assay). Type of experiment: biochemical. On the procedure: Incorporation of ^32 P into myelin basic protein (MBP) was assayed in the presence of a glutathione S-transferase fusion protein containing p44MAP kinase (GST-MAPK) and a glutathione S-transferase fusion protein containing p45MEK (GST-MEK). The assay solution contained 20 mM HEPES, pH 7.4, 10 MM MgCl2, 1 mM MnCl2, 1 mM EGTA, 50 μM [γ-^32 P]ATP, 10 μg GST-MEK, 0.5 μg GST-MAPK and 40 μg MBP in a final volume of 100 μL. […] Compounds were assessed at 10 μM for ability to inhibit incorporation of ^32 P.
Chain of MEK (Q02750 whole entry, the tested form may be a part): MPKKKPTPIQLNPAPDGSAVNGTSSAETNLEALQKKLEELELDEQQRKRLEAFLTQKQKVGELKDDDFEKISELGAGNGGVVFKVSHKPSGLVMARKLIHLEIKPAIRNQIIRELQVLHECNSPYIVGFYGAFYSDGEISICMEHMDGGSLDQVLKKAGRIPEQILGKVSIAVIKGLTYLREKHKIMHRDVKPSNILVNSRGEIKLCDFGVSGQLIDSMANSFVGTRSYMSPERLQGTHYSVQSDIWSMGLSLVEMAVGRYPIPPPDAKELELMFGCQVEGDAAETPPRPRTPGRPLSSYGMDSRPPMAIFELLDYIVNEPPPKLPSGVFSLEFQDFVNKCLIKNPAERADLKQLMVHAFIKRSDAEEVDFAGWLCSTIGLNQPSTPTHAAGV
To ascertain whether compounds were inhibiting GST-MEK or GST MAPK, two additional protocols were employed. In the first protocol, compounds were added to tubes containing GST-MEK, followed by addition of GST-MAPK, MBP and [γ-^32 P]ATP. In the second protocol, compounds were added to tubes containing both GST-MEK and GST-MAPK, followed by MBP and [γ-^32 P]ATP.
For evaluation of direct MEK activity, 10 μg GST-MEK1 was incubated with 5 μg of a glutathione S-transferase fusion protein containing p44MAP kinase with a lysine to alanine mutation at position 71 (GST-MAPK-KA). This mutation eliminates kinase activity of MAPK, so only kinase activity attributed to the added MEK remains. Incubations were 15 minutes at 30° C in a final volume of 50 μL containing 50 mM Tris (pH 7.5), […], […], and 10 μM [γ-^32 P]ATP. The reaction was stopped by addition of Laenunli SDS sample buffer and phosphorylated GST-MAPK-KA was resolved by electrophoresis on a 10% polyacrylamide gel. Radioactivity incorporated into GST-MAPK-KA was determined by autoradiography, and subsequently by excision of the bands followed by scintillation counting. […] When these sites are phosphorylated, MEK activity is increased. Phosphorylation of these sites can be mimicked by mutation of the serine residues to glutamate. For this assay, 5 μg GST-MEK-2E was incubated with 5 μg GST-MAPK-KA for 15 minutes at 30° C. in the same reaction buffer as described above. Reactions were terminated and analyzed as above.

SMILES strings stand for the structures. pIC50: −log10 of the molar value. A value given as a limit tells only on which side of the number the result lay.

Usually pIC50 stands for the negative decadic logarithm of the IC50, by convention in mol/L. `Cc1cc(I)ccc1Nc1c(C(=O)NOCC#Cc2cccc(F)c2)ccc(F)c1F` [Example 34a, 3,4-Difluoro-N-[3-(3-fluoro-phenyl)-prop-2-ynyloxy]-2-(4-iodo-2-methyl-phenylamino)-benzamide] gave a pIC50 in the experiment on MAP kinase of 5.82. Still for that read-out and setting: under `CC=CCONC(=O)c1cc(Br)c(F)c(F)c1Nc1ccc(I)cc1C` [Example 24a, 5-Bromo-N-(but-2-enyloxy)-3,4-difluoro-2-(4-iodo-2-methyl-phenylamino)-benzamide] stands 6.92. In the case of `Cc1cc(I)ccc1Nc1c(C(=O)NOCC#Cc2ccccc2F)ccc(F)c1F` [Example 36a, 3,4-Difluoro-N-[3-(2-fluoro-phenyl)-prop-2-ynyloxy]-2-(4-iodo-2-methyl-phenylamino)-benzamide], in the experiment with MAP kinase, the pIC50 is 7.15. In turn, `CONC(=O)c1cc(Cl)ccc1Nc1ccc(I)cc1C` [Example 7a, 5-Chloro-2-(4-iodo-2-methyl-phenylamino)-N-methoxybenzamide] had a pIC50 in the experiment with MAP kinase of more than 4.52. Regarding `Cc1cc(I)ccc1Nc1ccc(F)cc1C(=O)NOCc1ccccc1` [Example 186, N-Benzyloxy-5-fluoro-2-(4-iodo-2-methyl-phenylamino)-benzamide], on MEK (Table 1), the pIC50 was 6.26. `Cc1ccccc1Nc1cc(F)ccc1C(=O)NO` [Example 9a, 4-Fluoro-N-hydroxy-2-(2-methylphenylamino)-benzamide] gave a pIC50 in the experiment on MAP kinase of 6.00.

For `Cc1cc(I)ccc1Nc1c(C(=O)NOC(C)C)ccc(F)c1F` [Example 47a, 3,4-Difluoro-2-(4-iodo-2-methyl-phenylamino)-N-isopropoxy-benzamide], the pIC50 in the experiment on MAP kinase was 6.89. In the case of `C#CCCONC(=O)c1ccc(F)c(F)c1Nc1ccc(I)cc1C` [Example 29a, N-(But-3-ynyloxy)-3,4-difluoro-2-(4-iodo-2-methyl-phenylamino)-benzamide], in the experiment with MAP kinase, the pIC50 is 6.14.

In the case of `CCONC(=O)c1ccc(F)c(F)c1Nc1ccc(I)cc1C` [Example 40a, N-Ethoxy-3,4-difluoro-2-(4-iodo-2-methyl-phenylamino)-benzamide], the negative-log IC50 (pIC50) in the experiment on MAP kinase is 6.90.

Consider `Cc1cc(F)ccc1Nc1cc(F)ccc1C(=O)NO` [Example 8a, 4-Fluoro-N-hydroxy-2-(4-fluoro-2-methyl-phenylamino)-benzamide], for which the pIC50 with MAP kinase was 5.52. With `CCN(CC)C(=O)c1ccc(F)cc1Nc1ccc(I)cc1C` [Example 43, N,N-Diethyl-4-fluoro-2-(4-iodo-2-methyl-phenylamino)-benzamide], the pIC50 against MEK (Table 1) was less than 6.00. As to `Cc1cc(I)ccc1Nc1ccc(Cl)cc1C(=O)NO` [Example 4a, 5-Chloro-N-hydroxy-2-(4-iodo-2-methyl-phenylamino)-benzamide], the pIC50 with MAP kinase is 6.00. On the same count and under the same terms, the result for `CONC(=O)c1ccc(F)c(F)c1Nc1ccc(I)cc1C` [Example 14a, 3,4-Difluoro-2-(4-iodo-2-methyl-phenylamino)-N-N-methoxy-benzamide] reads less than 5.70; that for `Cc1cc(I)ccc1Nc1c(C(=O)NO)cc(Br)c(F)c1F` [Example 2a, 5-Bromo-3,4-difluoro-N-hydroxy-2-(4-iodo-2-methyl-phenylamino)-benzamide], 7.52; that for `Cc1cc(I)ccc1Nc1ccc(Cl)cc1C(=O)N(C)O` [Example 5a, 5-Chloro-N-hydroxy-2-(4-iodo-2-methyl-phenylamino)-N-methyl-benzamide], approximately 4.52. With `Cc1cc(I)ccc1Nc1ccc([N+](=O)[O-])cc1C(=O)NCCO` [Example 195, N-(2-Hydroxy-ethyl)-2-(4-iodo-2-methyl-phenylamino)-5-nitro-benzamide], the pIC50 against MEK (Table 1) was 4.89. In the case of `Cc1cc(I)ccc1Nc1ccc(Cl)cc1C(=O)NOC1CCCCO1` (stereo not shown) [Example 6a, 5-Chloro-2-(4-iodo-2-methyl-phenylamino)-N-(terahydropyran-2-yloxy)benzamide], the pIC50 with MAP kinase is approximately 4.52.

With `Cc1cc(Br)ccc1Nc1cc(F)ccc1C(=O)NO` [Example 3a, 2-(4-bromo-2-methyl-phenylamino)-4-fluoro-N-hydroxy-benzamide], the results for the pIC50 in the experiment on MAP kinase and against MEK (Table 2) were 5.52 and 7.14, respectively. For `Cc1cc(Cl)ccc1Nc1cc(F)ccc1C(=O)NO` [Example 11a, 4-Fluoro-N-hydroxy-2-(4-cluoro-2-methyl-phenylamino)-benzamide] the same measures were 6.30 and 6.48. `Cc1cc(I)ccc1Nc1cc(F)ccc1C(=O)NO` [Example 1a, 4-Fluoro-N-hydroxy-2-(4-iodo-2-methyl-phenylamino)-benzamide] gave a pIC50 in the experiment on MAP kinase of 7.30. Still for that read-out and setting: the result for `Cc1cc(I)ccc1Nc1cc(F)ccc1C(=O)NOCc1ccoc1` [Example 20a, 4-Fluoro-N-(furan-3-ylmethoxy)-2-(4-iodo-2-methyl-phenylamino)-benzamide] reads 6.77. For `Cc1cc(I)ccc1Nc1cc([N+](=O)[O-])ccc1C(=O)O` [Example 30, 2-(4-Iodo-2-methyl-phenylamino)-4-nitro-benzoic acid], the pIC50 against MEK (Table 1) is 3.98. For `CCCONC(=O)c1ccc(F)c(F)c1Nc1ccc(I)cc1C` [Example 43a, 3,4-Difluoro-2-(4-iodo-2-methyl-phenylamino)-N-propoxy-benzamide], the pIC50 in the experiment on MAP kinase was 7.00.

As for `Cc1cc(I)ccc1Nc1cc(F)ccc1C(=O)NOCc1ccccc1` [Example 77a, 4-Fluoro-2-(4-iodo-2-methyl-phenylamino)-N-phenylmethoxy-benzamide], the pIC50 on MEK (Table 2) was 6.55. `Cc1cc(I)ccc1Nc1c(C(=O)NOCC2CC2)cc(Br)c(F)c1F` [Example 58a, 5-Bromo-N-cyclopropylmethoxy-3,4-difluoro-2-(4-iodo-2-methyl-phenylamino)]: the results for the pIC50 with MAP kinase and against MEK (Table 2) were 7.85 and 7.74, respectively. For the compound `C=C(C)CONC(=O)c1ccc(F)c(F)c1Nc1ccc(I)cc1C` [Example 66a, 3,4-Difluoro-2-(4-iodo-2-methyl-phenylamino)-N-(2-methyl-allyloxy)-benzamide], in the experiment on MAP kinase, the pIC50 was 6.89. Turning to `Cc1cc(I)ccc1Nc1c(C(=O)NOC2CCC2)ccc(F)c1F` [Example 50a, N-Cyclobutyloxy-3,4-difluoro-2-(4-iodo-2-methyl-phenylamino)-benzamide], the negative logarithm of the IC50 (pIC50) in the experiment on MAP kinase was 6.66. This pIC50 is 0.23 log units lower than that of the compound before. Regarding `C#CCONC(=O)c1ccc(F)c(F)c1Nc1ccc(I)cc1C` [Example 71a, 3,4-Difluoro-2-(4-iodo-2-methyl-phenylamino)-N-(prop-2-ynyloxy)-benzamide], the pIC50 with MAP kinase is 6.41. This pIC50 is 0.25 log units lower than that of the compound before.
